Results published in US3948933A, “Pyrrolo[1,2-c]imidazolediones” (priority 1973, dated 1976).
Read-outs that look alike come from different tables or passages of the source.

Legend:
[1] = system: secondary conditioned response; test: inhibition of the secondary conditioned response in rats (anxiolytic and tranquilizing properties); assay type: in vivo; conditions: 60 mg/kg i.p.
Protocol: (§1) The depressant activity of the new pyrroloimidazole-diones on the C.N.S. of animals is evidenced by testing the compounds in mice according to the Irwin method. The tranquilizing and anxiolytic activity is evaluated on the basis of the secondary conditioned response in rats.

[2] = acute toxicity (LD50) in mice; conditions: mouse, in vivo, ip
C.N.S. = test: Irwin test (Irwin method) in mice, depressant activity on the C.N.S.; assay type: in vivo; conditions: Mus musculus, ip
Protocol: as §1
In experiments in mice with the representative compound α-2-(o-chlorophenyl)-5,6,7,7a-tetrahydro-1,3(2H)-dioxo-1H-pyrrolo[1,2-c]imidazolo-5-carboxylic acid, the following ED50 values were determined for parameters of the Irwin test which are related to sedative and hypnotic activities.

**Q.** For `CCNC(=O)C1CCC2C(=O)N(c3ccccc3)C(=O)N12` (stereo not drawn) [Example 14, α-5-ethylcarbamyl-2-phenyl-5,6,7,7a-tetrahydro-1H-pyrrolo[1,2-c]imidazole-1,3(2H)-dione], which Deconditioned/Conditioned [1] is on record?
**A.** Its Deconditioned/Conditioned is 7/10.

**Q.** For `CCN(CC)C(=O)C1CCC2C(=O)N(c3ccccc3)C(=O)N12` (single isomer, unassigned) [Example 21, α(+)-5-diethylcarbamyl-2-phenyl-5,6,7,7a-tetrahydro-1H-pyrrolo[1,2-c]imidazole-1,3(2H)-dione], which Deconditioned/Conditioned ([1]; 60 mg/kg) is on record?
**A.** The Deconditioned/Conditioned was 7/10.

**Q.** With `CCN(CC)C(=O)C1CCC2C(=O)N(c3ccccc3)C(=O)N12` (single isomer, unassigned) [Example 22, α(-)-5-diethylcarbamyl-2-phenyl-5,6,7,7a-tetrahydro-1H-pyrrolo[1,2-c]imidazole-1,3(2H)-dione] as the molecule, how does the Deconditioned/Conditioned ([1]; 60 mg/kg) read?
**A.** The Deconditioned/Conditioned was 6/10.

**Q.** Which LD50 [2] does the source give for `O=C(O)C1CCC2C(=O)N(c3ccccc3Cl)C(=O)N12` (stereo not drawn) [α-2-(o-chlorophenyl)-5,6,7,7a-tetrahydro-1,3(2H)-dioxo-1H-pyrrolo[1,2-c]imidazolo-5-carboxylic acid] here?
**A.** The LD50 was roughly 700 mg/kg.

**Q.** What about the ED50 (C.N.S.; read-out: ED50, Impairment of motor coordination) of the same molecule?
**A.** The ED50 was 100 mg/kg.

**Q.** What about the ED50 (C.N.S.; read-out: ED50, Minimal hypnotic dose) of the same molecule?
**A.** Its ED50 is 200 mg/kg.

**Q.** What about the ED50 (C.N.S.; read-out: ED50, Righting reflex) of the same molecule?
**A.** Its ED50 is 80 mg/kg.

**Q.** What about the ED50 (C.N.S.; read-out: ED50, Spontaneous activity) of the same molecule?
**A.** Its ED50 is 100 mg/kg.

**Q.** With `CCN(CC)C(=O)C1CCC2C(=O)N(c3ccccc3)C(=O)N12` (stereo not drawn) [Example 12, α-5-diethylcarbamyl-2-phenyl-5,6,7,7a-tetrahydro-1H-pyrrolo[1,2-c]imidazole-1,3(2H)-dione] as the molecule, how does the Deconditioned/Conditioned [1] read?
**A.** The Deconditioned/Conditioned was 8/10.

**Q.** With `CCN(CC)C(=O)C1CCC2C(=O)N(c3cccc(C(F)(F)F)c3)C(=O)N12` (centres unmarked) [Example 37, 5-diethylcarbamyl-2-(m-trifluoromethyl)phenyl-5,6,7,7a-tetrahydro-1H-pyrrolo-[1,2-c]imidazole-1,3(2H)-dione] as the molecule, how does the Deconditioned/Conditioned [1] read?
**A.** Its Deconditioned/Conditioned is 10/10.

**Q.** Which Deconditioned/Conditioned [1] does the source give for `CCN(CC)C(=O)C1CCC2C(=O)N(c3cccc(Cl)c3)C(=O)N12` (stereo not drawn) [Example 13, α-5-diethylcarbamyl-2-(m-chlorophenyl)-5,6,7,7a-tetrahydro-1H-pyrrolo[1,2-c]imidazole-1,3(2H)-dione] here?
**A.** Its Deconditioned/Conditioned is 7/10.
